Measured values: patent publication US20100160356A1, “NOVEL CYCLOBUTYL COMPOUNDS AS KINASE INHIBITORS” (priority 2006, published 2010)
≈ marks a conversion by molar mass, not a printed value.

Legend:
[1] = Solubility in phosphate buffer by the shake flask method; type: physicochemical; conditions: 37 °C, pH 7, aqueous buffer, thermodynamic from solid, pH 7.0, 37° C., 24 h shake flask
Experimental: The procedure described in Glomme et al. (J. Pharm. Sci. 94(1): 1-16, 2005) is followed. The concentration determination is carried out by HPLC with UV detection against a standard solution.
Buffer: 3.954 g of sodium dihydrogenphosphate monohydrate 6.024 g of sodium chloride +950 ml of ultrapure water. Setting of pH 7.0 using 0.1 M NaOH or 0.1 M HCl.
The samples were shaken at 37° C. and 450 rpm for 24 h. After about 7 h, the pH of the samples was checked and adjusted if necessary. It was checked whether the sample was still present in excess. Just before the end of the 24 h shaking time, the samples were again checked for pH and a precipitate.
• Ultrapure water plant: MilliQ gradient, Millipore, unit: F3PN37462D • Shaker: TiMix control, Bühler • Incubation hood: TH 15, Bühler • pH meter: 766 Calimatic Knick instrument: pH 1 • pH electrode: InLab 423 Mettler • HPLC: column: LiChroCart 125-4 LiChrospher 100 RP-18 • flow rate: 1.000 ml/min • eluents: • eluent A: 2 ml of diethylamine, for synthesis+1000 ml of methanol, LiChrosolv • eluent B: 5 g of ammonium acetate, for analysis+5 ml of methanol, LiChrosolv+995 ml of ultrapure water

[2] = target: IGF1R (Homo sapiens, UniProt P08069); experiment: Inhibition of IGF1R (flashplate assay); type: biochemical; conditions: flashplate method
IGF1R, sequence (P08069 31-1367, species assumed): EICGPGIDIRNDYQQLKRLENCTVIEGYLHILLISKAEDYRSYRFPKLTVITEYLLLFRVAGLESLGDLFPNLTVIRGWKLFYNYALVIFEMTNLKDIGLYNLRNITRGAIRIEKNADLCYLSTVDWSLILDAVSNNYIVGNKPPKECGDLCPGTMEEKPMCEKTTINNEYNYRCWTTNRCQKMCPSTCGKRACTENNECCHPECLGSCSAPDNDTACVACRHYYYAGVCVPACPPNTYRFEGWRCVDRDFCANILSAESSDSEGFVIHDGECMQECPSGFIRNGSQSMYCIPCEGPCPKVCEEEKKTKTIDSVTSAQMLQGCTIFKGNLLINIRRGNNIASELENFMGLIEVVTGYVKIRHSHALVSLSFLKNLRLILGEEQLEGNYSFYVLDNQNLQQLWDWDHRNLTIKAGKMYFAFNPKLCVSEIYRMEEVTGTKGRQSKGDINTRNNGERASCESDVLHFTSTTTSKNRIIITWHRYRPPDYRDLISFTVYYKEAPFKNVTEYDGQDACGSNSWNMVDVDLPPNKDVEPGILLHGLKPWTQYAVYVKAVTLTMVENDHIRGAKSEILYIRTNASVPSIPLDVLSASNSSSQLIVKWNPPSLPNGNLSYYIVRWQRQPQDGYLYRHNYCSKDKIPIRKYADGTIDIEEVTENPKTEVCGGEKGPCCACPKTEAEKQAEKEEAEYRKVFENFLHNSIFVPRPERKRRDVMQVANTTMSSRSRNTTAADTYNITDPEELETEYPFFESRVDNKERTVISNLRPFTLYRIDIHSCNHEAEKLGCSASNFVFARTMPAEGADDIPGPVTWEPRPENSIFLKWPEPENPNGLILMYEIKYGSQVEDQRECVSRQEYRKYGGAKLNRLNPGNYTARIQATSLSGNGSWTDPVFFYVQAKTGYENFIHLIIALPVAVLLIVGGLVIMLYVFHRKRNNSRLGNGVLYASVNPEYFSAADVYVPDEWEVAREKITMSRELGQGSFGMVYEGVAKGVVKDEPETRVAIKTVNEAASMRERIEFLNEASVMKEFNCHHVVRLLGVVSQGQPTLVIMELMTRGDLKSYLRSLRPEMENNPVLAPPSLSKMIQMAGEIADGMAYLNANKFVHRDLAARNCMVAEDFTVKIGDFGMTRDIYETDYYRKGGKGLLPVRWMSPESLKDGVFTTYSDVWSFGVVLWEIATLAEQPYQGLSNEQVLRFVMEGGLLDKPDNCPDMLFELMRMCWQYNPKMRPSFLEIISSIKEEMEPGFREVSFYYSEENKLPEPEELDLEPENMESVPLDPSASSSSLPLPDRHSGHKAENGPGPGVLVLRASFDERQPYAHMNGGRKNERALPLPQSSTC
Experimental: (§1) The test plates used are 96-well flashplate microtitre plates from Perkin Elmer (USA). The components of the kinase reaction are pipetted into the assay plate. The IGF1R kinase is incubated for 1 hr. with radioactively labelled ^33P-ATP in the presence and absence of test substances in a total volume of 100 μl at room temperature together with biotinylated poly(Glu, Tyr)4:1. The reaction is terminated using 25 μl of a 200 mM EDTA solution. After incubation for a further 30 min at room temperature, the supernatants are removed by suction, and the wells are washed three times with 100 μl of 0.9% NaCl solution each time. The radioactivity is measured using a Topcount scintillation counter (PerkinElmer, USA). IC50 values are calculated using the RS1 computer program.

[3] = target: T1, FAK (focal adhesion kinase) (Homo sapiens, UniProt Q05397); experiment: Inhibition of FAK (ELISA assay), FAK phosphorylation in cells; type: cell-based; conditions: human cells with FAK amplification
T1 construct: endogenous in cells; host or cells: Calu-6 or HT-29
Experimental: Activated FAK promotes the invasive growth of tumour cells and inhibits anoikis.
The amount of phosphorylated FAK is determined by a specific capture ELISA or an analogous LUMINEX assay. FAK from cell lysates is bound to a 96-well ELISA plate or LUMINEX beads by means of a specific antibody (“capturing”), and the tyrosine phosphorylation is detected using a biotin-labelled anti-phosphotyrosine antibody and a streptavidin-peroxidase conjugate by a chemiluminescence method or by means of a fluorescence-labelled anti-phosphotyrosine antibody.
For determination of the activity of kinase inhibitors, cells are pretreated with increasing concentrations of these compounds for 45 min, and the FAK phosphorylation is then determined. As internal control, a concentration series of a reference inhibitor is measured.

[4] = target: VEGF-2 (Homo sapiens, UniProt P35968); experiment: Inhibition of VEGF-2 (flashplate assay); type: biochemical; conditions: flashplate method
VEGF-2, sequence (P35968 20-1356): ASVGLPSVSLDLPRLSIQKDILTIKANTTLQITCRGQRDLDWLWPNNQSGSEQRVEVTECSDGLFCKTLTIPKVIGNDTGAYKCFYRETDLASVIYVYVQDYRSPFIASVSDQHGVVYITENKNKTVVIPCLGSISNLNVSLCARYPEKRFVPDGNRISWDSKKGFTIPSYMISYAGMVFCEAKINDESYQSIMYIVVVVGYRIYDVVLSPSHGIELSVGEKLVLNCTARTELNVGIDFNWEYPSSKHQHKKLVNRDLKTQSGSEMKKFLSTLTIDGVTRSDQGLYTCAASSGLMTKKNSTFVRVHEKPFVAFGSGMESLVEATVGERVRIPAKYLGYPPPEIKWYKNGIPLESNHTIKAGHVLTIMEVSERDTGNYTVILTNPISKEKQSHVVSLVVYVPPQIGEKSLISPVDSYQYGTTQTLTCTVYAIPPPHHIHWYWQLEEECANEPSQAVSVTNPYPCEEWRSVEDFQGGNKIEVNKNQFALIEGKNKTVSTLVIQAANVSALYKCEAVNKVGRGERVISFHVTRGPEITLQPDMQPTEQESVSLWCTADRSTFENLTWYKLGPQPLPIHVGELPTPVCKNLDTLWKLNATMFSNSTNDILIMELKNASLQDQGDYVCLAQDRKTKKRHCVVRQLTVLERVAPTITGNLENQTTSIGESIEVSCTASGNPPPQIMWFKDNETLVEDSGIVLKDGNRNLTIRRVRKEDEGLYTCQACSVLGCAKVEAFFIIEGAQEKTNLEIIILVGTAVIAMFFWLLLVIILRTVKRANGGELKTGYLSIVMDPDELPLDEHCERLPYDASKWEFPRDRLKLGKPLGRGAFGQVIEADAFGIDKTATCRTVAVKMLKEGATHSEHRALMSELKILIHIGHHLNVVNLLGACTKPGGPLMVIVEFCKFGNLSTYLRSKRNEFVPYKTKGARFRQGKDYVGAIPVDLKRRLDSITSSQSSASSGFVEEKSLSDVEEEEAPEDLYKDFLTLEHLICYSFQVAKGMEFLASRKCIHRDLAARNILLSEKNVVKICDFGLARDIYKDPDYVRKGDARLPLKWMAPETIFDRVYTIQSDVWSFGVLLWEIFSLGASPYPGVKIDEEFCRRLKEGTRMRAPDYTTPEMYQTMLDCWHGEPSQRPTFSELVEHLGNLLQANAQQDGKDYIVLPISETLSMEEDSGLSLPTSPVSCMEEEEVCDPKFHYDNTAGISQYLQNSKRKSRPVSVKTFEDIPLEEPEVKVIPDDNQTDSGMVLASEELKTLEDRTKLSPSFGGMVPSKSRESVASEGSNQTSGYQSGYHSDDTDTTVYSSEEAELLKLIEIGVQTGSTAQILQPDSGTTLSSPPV
Experimental: as §1, with “are 384-well” for “are 96-well”, “The VEGF-2” for “The IGF1R”, “for 3” for “for 1”

[5] = target: TIE2 (Homo sapiens, UniProt Q02763); experiment: Inhibition of TIE2 (flashplate assay); type: biochemical; conditions: flashplate method
TIE2, sequence (Q02763 23-1124, species assumed): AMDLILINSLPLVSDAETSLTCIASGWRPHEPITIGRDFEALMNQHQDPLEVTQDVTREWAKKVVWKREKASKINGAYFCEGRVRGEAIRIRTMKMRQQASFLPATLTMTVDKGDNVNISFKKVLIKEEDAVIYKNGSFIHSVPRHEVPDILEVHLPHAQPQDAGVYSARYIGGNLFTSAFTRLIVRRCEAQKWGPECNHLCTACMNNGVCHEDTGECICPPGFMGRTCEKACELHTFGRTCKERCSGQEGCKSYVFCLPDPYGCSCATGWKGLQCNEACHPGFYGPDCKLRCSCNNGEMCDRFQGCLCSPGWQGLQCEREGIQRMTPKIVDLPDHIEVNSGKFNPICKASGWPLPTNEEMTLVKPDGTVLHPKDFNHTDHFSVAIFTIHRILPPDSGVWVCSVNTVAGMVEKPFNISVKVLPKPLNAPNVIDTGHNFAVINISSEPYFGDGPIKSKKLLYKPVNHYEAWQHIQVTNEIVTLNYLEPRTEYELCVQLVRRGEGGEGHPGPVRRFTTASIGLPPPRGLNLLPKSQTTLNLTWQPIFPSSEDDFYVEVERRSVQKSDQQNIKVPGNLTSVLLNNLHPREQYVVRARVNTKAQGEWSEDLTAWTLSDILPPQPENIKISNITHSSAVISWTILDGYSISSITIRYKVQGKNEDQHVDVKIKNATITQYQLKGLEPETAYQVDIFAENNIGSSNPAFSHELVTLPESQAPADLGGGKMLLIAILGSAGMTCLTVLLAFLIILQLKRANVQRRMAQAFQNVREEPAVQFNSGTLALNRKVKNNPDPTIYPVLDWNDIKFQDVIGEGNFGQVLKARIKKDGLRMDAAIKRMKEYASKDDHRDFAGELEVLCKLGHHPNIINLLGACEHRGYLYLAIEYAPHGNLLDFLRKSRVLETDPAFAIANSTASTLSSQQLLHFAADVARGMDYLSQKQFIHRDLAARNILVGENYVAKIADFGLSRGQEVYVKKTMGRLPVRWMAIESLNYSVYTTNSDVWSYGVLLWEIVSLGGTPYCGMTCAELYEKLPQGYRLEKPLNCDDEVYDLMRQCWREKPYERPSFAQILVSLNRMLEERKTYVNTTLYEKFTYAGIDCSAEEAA
Experimental: B4: inhibition of T1E2 (Flashplate Assay)
as §1, with “are 384-well” for “are 96-well”, “The TIE2” for “The IGF1R”, “for 3” for “for 1”

[6] = target: PDGFRβ (Homo sapiens, UniProt P09619); experiment: Inhibition of PDGFRβ (flashplate assay); type: biochemical; conditions: flashplate method
PDGFRβ, sequence (P09619 33-1106, species assumed): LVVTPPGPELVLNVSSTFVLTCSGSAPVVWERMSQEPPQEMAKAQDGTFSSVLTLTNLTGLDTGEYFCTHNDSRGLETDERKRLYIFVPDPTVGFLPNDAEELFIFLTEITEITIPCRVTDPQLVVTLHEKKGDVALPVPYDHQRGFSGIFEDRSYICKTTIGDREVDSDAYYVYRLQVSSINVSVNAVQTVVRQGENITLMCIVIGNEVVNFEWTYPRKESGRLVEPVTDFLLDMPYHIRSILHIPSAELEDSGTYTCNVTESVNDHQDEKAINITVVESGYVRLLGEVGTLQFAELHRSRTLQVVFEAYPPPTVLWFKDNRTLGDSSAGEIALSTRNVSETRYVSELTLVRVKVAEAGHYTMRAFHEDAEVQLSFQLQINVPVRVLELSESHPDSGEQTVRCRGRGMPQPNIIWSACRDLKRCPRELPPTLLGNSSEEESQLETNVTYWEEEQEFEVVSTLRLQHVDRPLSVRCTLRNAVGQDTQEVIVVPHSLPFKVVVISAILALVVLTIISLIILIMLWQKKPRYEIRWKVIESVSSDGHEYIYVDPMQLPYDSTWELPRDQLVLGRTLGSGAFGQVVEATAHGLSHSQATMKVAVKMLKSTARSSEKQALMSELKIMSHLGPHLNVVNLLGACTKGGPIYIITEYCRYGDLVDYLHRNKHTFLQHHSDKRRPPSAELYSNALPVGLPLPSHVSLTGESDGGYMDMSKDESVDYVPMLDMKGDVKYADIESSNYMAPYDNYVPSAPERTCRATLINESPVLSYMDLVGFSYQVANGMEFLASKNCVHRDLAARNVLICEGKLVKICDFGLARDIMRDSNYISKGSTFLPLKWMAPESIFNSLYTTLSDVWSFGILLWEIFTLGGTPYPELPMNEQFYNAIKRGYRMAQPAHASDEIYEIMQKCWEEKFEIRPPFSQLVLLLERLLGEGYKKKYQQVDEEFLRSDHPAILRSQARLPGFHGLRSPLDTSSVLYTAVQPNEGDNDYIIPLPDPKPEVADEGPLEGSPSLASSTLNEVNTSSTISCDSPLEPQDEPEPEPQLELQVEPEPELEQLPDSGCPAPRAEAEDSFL
Experimental: as §1, with “The PDGFRβ” for “The IGF1R”, “for 3” for “for 1”, “temperature (here autophosphorylation of the kinase).” for “temperature together with biotinylated poly(Glu, Tyr)4:1.”, “using 150” for “using 25”, “a 60” for “a 200”, “with 200” for “with 100”

[7] = target: T2, TGFβR1 (Homo sapiens, UniProt P36897); experiment: Inhibition of TGFβR1 (flashplate assay); type: biochemical; conditions: flashplate method
T2 sequence (P36897 34-503): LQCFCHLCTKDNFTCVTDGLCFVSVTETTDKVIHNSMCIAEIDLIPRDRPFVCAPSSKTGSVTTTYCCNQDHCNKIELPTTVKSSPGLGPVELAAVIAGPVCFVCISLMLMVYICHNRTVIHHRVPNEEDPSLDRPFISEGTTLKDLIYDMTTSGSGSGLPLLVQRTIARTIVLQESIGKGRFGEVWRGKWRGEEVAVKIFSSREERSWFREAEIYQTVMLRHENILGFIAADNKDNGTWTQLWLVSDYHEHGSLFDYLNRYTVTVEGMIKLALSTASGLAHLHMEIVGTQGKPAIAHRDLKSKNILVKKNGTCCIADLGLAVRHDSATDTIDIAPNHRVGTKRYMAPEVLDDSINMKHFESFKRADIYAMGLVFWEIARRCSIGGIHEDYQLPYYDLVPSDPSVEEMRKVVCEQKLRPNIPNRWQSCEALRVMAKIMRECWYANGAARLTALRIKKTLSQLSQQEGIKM
Experimental: The test is carried out as described in Example B1b for IGF1R. A biotinylated is added to the TGFβR1 kinase.
The kinase assay is carried out as a 384-well flashplate assay.
The components of the kinase reaction are pipetted into the assay plate. The TGFβR1 kinase is incubated for 45 min with radioactively labelled ^33P-ATP in the presence and absence of test substances together with biotinylated substrate in a total volume of 35 μl. The reaction is terminated using 25 μl of 200 mM EDTA solution, removed by suction after 30 min at room temperature, and the wells are washed with three times with 100 μl of 0.9% NaCl solution each time. The radioactivity is measured using a Topcount scintillation counter (PerkinElmer, USA). IC50 values are calculated using the RS1 computer program.

[8] = target: T3, IGF1 receptor (IGF1R) (Homo sapiens, UniProt P08069); experiment: Inhibition of IGF1R (ELISA assay), IGF1-stimulated autophosphorylation in cells; type: cell-based; conditions: human tumour cells stimulated with IGF1, read-out: IC50 IGF (ELISA)
T3 construct: endogenous in cells; host or cells: MCF-7 or Calu-6
T3 sequence (P08069 31-1367): as the sequence (P08069 31-1367, species assumed) above
Experimental: The stimulation induces an autophosphorylation of tyrosine residues in the cytoplasmatic IGF1R domain, which triggers signal transduction cascades, which result in inhibition of apoptosis and proliferation of the cells.
The amount of phosphorylated IGF1R is determined by a receptor-specific capture ELISA or an analogous LUMINEX assay. The IGF1R from cell lysates is bound to a 96-well ELISA plate or LUMINEX beads by means of a specific antibody (“capturing”), and the tyrosine phosphorylation is detected using a biotin-labelled anti-phosphotyrosine antibody and a streptavidin-peroxidase conjugate by a chemiluminescence method or by means of a fluorescence-labelled anti-phosphotyrosine antibody.
For determination of the activity of kinase inhibitors, cells are pretreated with increasing concentrations of these compounds for 45 min and subsequently stimulated using IGF1 for 5 min. As internal control, the biological activity of the ligand IGF1 is checked, and a concentration series of an IGF1R reference inhibitor is measured.

| Compound | solubility at 24 h [1] | IC50 [2] | IC50 [3] | IC50 [4] | IC50 [5] | IC50 [6] | IC50 [7] | melting point | IC50 [8] |
| --- | --- | --- | --- | --- | --- | --- | --- | --- | --- |
| Nc1ncnc2c1c(-c1cccc(OCc3ccccc3)c1)cn2C1CC(CN2C(=O)c3ccccc3C2=O)C1 (stereo not drawn) [2-{3-[4-Amino-5-(3-benzyloxyphenyl)pyrrolo[2,3-d]pyrimidin-7-yl]cyclobutylmethyl}isoindole-1,3-dione, reference compound] | < 1 µg/mL |  |  |  |  |  |  |  |  |
| Nc1ncnc2c1c(-c1cccc(OCc3ccccc3)c1)cn2C1CC(CN2CCCC2)C1 (stereo not drawn) [5-(3-Benzyloxyphenyl)-7-(3-pyrrolidin-1-ylmethyl-cyclobutyl)-7H-pyrrolo[2,3-d]pyrimidin-4-ylamine, reference compound] | 53 µg/mL (≈ 117 µM) |  |  |  |  |  |  |  |  |
| NCC1CC(n2cc(-c3cccc(OCc4ccccc4)c3)c3c(N)ncnc32)C1 (stereo not drawn) [7-(3-Aminomethylcyclobutyl)-5-(3-benzyloxyphenyl)-7H-pyrrolo[2,3-d]pyrimidin-4-ylamine, reference compound] | 233 µg/mL (≈ 583 µM) |  |  |  |  |  |  |  |  |
| NCC1CC(n2cc(-c3ccccc3)c3c(N)ncnc32)C1 (stereo not drawn) [Compound 4] |  | 7400 nM | 1100 nM | 1100 nM | 7400 nM | 920 nM | 2800 nM | 84 to 86 °C |  |
| NCC1CC(n2cc(-c3ccc(N)cc3)c3c(N)ncnc32)C1 (stereo not drawn) [Compound 5] | 1090 µg/mL (≈ 3530 µM) | 2300 nM |  | 630 nM |  | 630 nM | 2900 nM | 319.5 to 321 °C (dec.) |  |
| NCC1CC(n2cc(-c3cccc(F)c3)c3c(N)ncnc32)C1 (stereo not drawn) [Compound 6, 7-(3-aminomethylcyclobutyl)-5-(3-fluorophenyl)-7H-pyrrolo[2,3-d]pyrimidin-4-ylamine] |  | 7500 nM | 1400 nM | 1800 nM |  | 700 nM | 1700 nM | 101 to 102 °C |  |
| CCCCOc1cccc(-c2cn(C3CC(CN)C3)c3ncnc(N)c23)c1 (stereo not drawn) [Compound 7, 7-(3-Aminomethylcyclobutyl)-5-(3-butoxyphenyl)-7H-pyrrolo[2,3-d]pyrimidin-4-ylamine] | 1120 µg/mL (≈ 3070 µM) | 1200 nM |  | 9100 nM | 910 nM |  |  |  |  |
| CS(=O)(=O)c1cccc(-c2cn(C3CC(CN)C3)c3ncnc(N)c23)c1 (stereo not drawn) [Compound 11, 7-(3-Aminomethylcyclobutyl)-5-(3-methanesulfonyl-phenyl)-7H-pyrrolo[2,3-d]pyrimidin-4-ylamine] | > 1000 µg/mL |  | 28000 nM |  |  |  |  |  | 10000 nM |

Other lines, results leading:

| solubility at 24 h [1] | IC50 [2] | IC50 [3] | IC50 [4] | IC50 [5] | IC50 [6] | IC50 [7] | melting point | IC50 [8] | Compound |
| --- | --- | --- | --- | --- | --- | --- | --- | --- | --- |
|  | 2300 nM | 3300 nM | 630 nM | 1500 nM | 630 nM |  |  | 9200 nM | NCC1CC(n2cc(-c3ccc(N)cc3)c3c(N)ncnc32)C1 (stereo not drawn) [Compound 24] |
|  | 1400 nM |  | 61 nM | 495 nM |  | 5000 nM |  | 4100 nM | NCC1CC(n2cc(-c3ccc4c(ccn4Cc4ccccc4)c3)c3c(N)ncnc32)C1 (stereo not drawn) [Compound 56] |
| 5 µg/mL (≈ 11.3 µM) |  |  |  |  |  |  |  |  | CC(=O)NCC1CC(n2cc(-c3cccc(OCc4ccccc4)c3)c3c(N)ncnc32)C1 (stereo not drawn) [N-{3-[4-Amino-5-(3-benzyloxyphenyl)pyrrolo[2,3-d]pyrimidin-7-yl]cyclobutylmethyl}acetamide, reference compound] |
| < 1 µg/mL |  |  |  |  |  |  |  |  | Nc1ncnc2c1c(-c1cccc(OCc3ccccc3)c1)cn2C1CC(CNC(=O)N2CCCCC2)C1 (stereo not drawn) [Piperidine-1-carboxylic acid {3-[4-amino-5-(3-benzyloxy-phenyl)pyrrolo[2,3-d]pyrimidin-7-yl]cyclo-butylmethyl}amide, reference compound] |
